The values below come from ChEMBL document CHEMBL1123941, “Potential antisecretory antidiarrheals. 1. Alpha 2-adrenergic aromatic aminoguanidine hydrazones” (1988).

The species named for assay [1] is Oryctolagus cuniculus. As to the kind of experiment: Inhibition of increase in intestine potential difference caused by diarrhea-inducing secretagogues in rabbits using 'Using chamber'; Inactive. Type of assay: functional, organism-based.
The species entered for assay [2] is Rattus norvegicus. Kind of assay: Inhibition of cholera toxin induced intestinal fluid secretion in rat; I= Inactive. Format: functional, organism-based.
Assay [3] is filed under the species Rattus norvegicus. As to the kind of experiment: Inhibition of cholera toxin induced intestinal fluid secretion in rat. Format: functional. To be noted: read-out: ID50 (the source's name).
The species entered for assay [4] is Oryctolagus cuniculus. Kind of assay: Inhibition of increase in intestine potential difference caused by diarrhea-inducing secretagogues in rabbits using 'Using chamber'; Active 1.0x 10e-6 M. Format: functional, organism-based.
Assay [5] is filed under the species Oryctolagus cuniculus. As to the kind of experiment: Inhibition of increase in intestine potential difference caused by diarrhea-inducing secretagogues in rabbits using 'Using chamber'; Active at 1.0 x 10e-6 M. Type of assay: functional, organism-based.
For assay [6], the species on record is Oryctolagus cuniculus. Kind of assay: Inhibition of increase in intestine potential difference caused by diarrhea-inducing secretagogues in rabbits using ''Using chamber''; Active at 1.1 x 10e-5 M. Type of assay: functional, organism-based.

SMILES strings stand for the structures. Calls of active or inactive are those of the source. The rule behind the calls is not given here.

As for `N=C(N)N/N=C/c1ccc2ccccc2c1`, the inhibition result in the assay filed under Oryctolagus cuniculus [1] is “inactive”. The ID50 result in the assay filed under Rattus norvegicus [2] is “inactive”.

Take `N=C(N)N/N=C1\CCCc2ccccc21`: the inhibition entry in the assay filed under Oryctolagus cuniculus [1] is “inactive”. Also, the ED50 in the assay filed under Rattus norvegicus [3] turned out to be 30.6 mg/kg. On to `Cc1c(N)cc(N)c(C)c1/C=N/N=C(N)N`, for which, in the assay listed under Rattus norvegicus [2], the ID50 entry was “inactive”. As for `Cc1cc(C)c(/C=N/N=C(N)N)c(C)c1`, in the assay filed under Oryctolagus cuniculus [1], the inhibition result was “inactive”. Also, in the assay listed under Rattus norvegicus [3], the ED50 was determined as 16.6 mg/kg. As to `N=C(N)N/N=C/c1c(Cl)cccc1Cl` [GUANABENZ], the inhibition entry in the assay filed under Oryctolagus cuniculus [4] was “Active”. Besides, the ED50 in the assay listed under Rattus norvegicus [3] came to 1.3 mg/kg. In the case of `COc1ccc2c(c1)/C(=N/N=C(N)N)CCC2`, the ID50 result in the assay listed under Rattus norvegicus [2] was “inactive”. For the molecule `Cc1cccc(C)c1/C=N/N=C(N)N`, in the assay filed under Oryctolagus cuniculus [5], the inhibition entry is “Active at 1.0 x 10e-6 M”. The ED50 in the assay filed under Rattus norvegicus [3] is 1.6 mg/kg.

Regarding `Cc1ccccc1/C=N/N=C(N)N`, the inhibition entry in the assay filed under Oryctolagus cuniculus [1] was “inactive”. Further, the ID50 entry in the assay listed under Rattus norvegicus [2] was “inactive”. With `Cc1cccc(C)c1/C=N/NC1=NCCN1`, the ED50 in the assay listed under Rattus norvegicus [3] came out at 7.9 mg/kg. For the molecule `N=C(N)N/N=C/c1cccc2ccccc12`, the inhibition result in the assay filed under Oryctolagus cuniculus [1] is “inactive”. The ED50 in the assay listed under Rattus norvegicus [3] amounted to 34.6 mg/kg. In the case of `Cc1c(N)cccc1/C=N/N=C(N)N`, the inhibition entry in the assay filed under Oryctolagus cuniculus [1] was “inactive”. In addition, in the assay filed under Rattus norvegicus [2], the ID50 result is “inactive”. With `COc1ccc2c(c1)CCC/C2=N\N=C(N)N`, in the assay filed under Rattus norvegicus [3], the ED50 came to 20.5 mg/kg. `Cc1ccc(N)cc1/C=N/N=C(N)N`: in the assay listed under Rattus norvegicus [2], the ID50 entry was “inactive”. With `N=C(N)N/N=C1\CCc2ccccc21`, in the assay listed under Rattus norvegicus [2], the ID50 entry was “inactive”.

Consider `Cc1cc(/C=N/N=C(N)N)cc(C)c1O`, for which the inhibition entry in the assay filed under Oryctolagus cuniculus [1] was “inactive”. Further, the ID50 entry in the assay listed under Rattus norvegicus [2] is “inactive”. With `CC1CCc2ccccc2/C1=N/N=C(N)N` (stereo unspecified), the ID50 result in the assay listed under Rattus norvegicus [2] was “inactive”.

Turning to `Cc1cc(O)cc(C)c1/C=N/N=C(N)N`, the inhibition entry in the assay filed under Oryctolagus cuniculus [1] is “inactive”. Further, in the assay listed under Rattus norvegicus [3], the ED50 is 3.4 mg/kg.

For the molecule `N=C(N)N/N=C/c1ccnc2ccccc12`, in the assay listed under Oryctolagus cuniculus [1], the inhibition result is “inactive”. Further, the ID50 entry in the assay filed under Rattus norvegicus [2] was “inactive”.

For `C/C(=N\N=C(N)N)c1c(C)cccc1C`, in the assay listed under Oryctolagus cuniculus [6], the inhibition entry was “Active at 1.1 x 10e-5 M”. Further, the inhibition entry in the assay filed under Oryctolagus cuniculus [1] is “inactive”. Moreover, in the assay filed under Rattus norvegicus [3], the ED50 was 13.3 mg/kg. Further, the ID50 result in the assay filed under Rattus norvegicus [2] is “inactive”. With `COc1cccc2c1CCC/C2=N\N=C(N)N`, the ID50 entry in the assay listed under Rattus norvegicus [2] was “inactive”. Consider `COc1cc(C)c(/C=N/N=C(N)N)c(C)c1`, for which the inhibition result in the assay filed under Oryctolagus cuniculus [1] is “inactive”. Besides, the ED50 in the assay filed under Rattus norvegicus [3] was found to be 27 mg/kg.
